Literature values as cited in publication PMC4522190 (ChemistryOpen, 2015).

Tested on: proteases
Conditions: statement without data

cyclo-RRRWFW (head to tail) [c-WFW]
metabolic stability against proteases (in words): good metabolic stability against proteases
